Holding throughout (test): Minimum Inhibitory Concentration (MIC) test
Type in all cases: cell-based

The test system of experiment [1] is Escherichia coli (ATCC 8739). Conditions: read-out: Minimum Inhibitory Concentration. As for the experimental part: (§1) Antimicrobial activity assessment of alpha-1,6-glucan ether compounds herein and other compounds were carried out using a standard MIC protocol. Each test compound was evaluated in two sets, one at 50-5000 ppm (high MIC actives) and the other at 3.125-100 ppm (low MIC actives). All active samples, with the exception of chitosan, were dissolved in DI water at a concentration of 1% w/v for the […] set; chitosan was instead dissolved in water acidified to pH 3.5 with hydrochloric acid. Each test compound was then serially diluted to concentrations of 0.4%, 0.2%, 0.1%, 0.04%, 0.02% and 0.01% (w/v). For the 3.125-100 ppm set, all test compounds were prepared similarly at a concentration 0.1% w/v, and then serially diluted to concentrations of 0.05%, 0.025%, 0.0125%, 0.00625% and 0.003125% (w/v). Bacteria inocula were prepared by diluting overnight cultures 1:20 in trypticase soy broth media (TSB). Yeast and mold were prepared by diluting overnight culture or monthly stock (1×10^8 cells per mL) 1:20 in potato dextrose broth media (PDB). 96-well plates were used in this test. First, 180 μL of plating media was added to each well. Next, each well received 20 μL water (control) or test compound at a specified concentration according to concentration range to be tested. Each sample was tested in triplicate. Lastly, each well received 20 μL of bacteria or fungi inoculum. Bacterial plates were incubated at 30° C. for 24 hours. Yeast and mold plates were incubated at 25° C.; yeast plates were incubated for 24 hours and mold plates were incubated for 7 days.

In experiment [2] the test system is Staphylococcus epidermidis (ATCC 12228). Conditions: read-out: Minimum Inhibitory Concentration. The method, then:
as §1

Experiment [3] has as its system Burkholderia cepacia (ATCC 25416). The following applies: read-out: Minimum Inhibitory Concentration. The method, then:
as §1

In experiment [4] the test system is Pseudomonas aeruginosa (ATCC 9027). Conditions: read-out: Minimum Inhibitory Concentration. As for the experimental part:
as §1

Experiment [5] deals with Pseudomonas putida (ATCC 49128). Conditions: read-out: Minimum Inhibitory Concentration. As for the experimental part: as §1
Experiment [6] deals with Staphylococcus aureus (ATCC 6538). The following applies: read-out: Minimum Inhibitory Concentration. As for the experimental part:
as §1

Experiment [7] concerns Aspergillus brasiliensis (ATCC 16404). Conditions: ATCC16404, 168 h, read-out: Minimum Inhibitory Concentration. The method, then:
as §1

Experiment [8] relates to Candida albicans (ATCC 10231). The following applies: read-out: Minimum Inhibitory Concentration. The method, then:
as §1

For experiment [9], the system named is Pseudomonas aeruginosa (ATCC 15442). Conditions: read-out: Minimum Inhibitory Concentration. As for the experimental part: as §1
For experiment [10], the system named is Enterobacter gergoviae (ATCC 33028). The following applies: Pluralibacter gergoviae, read-out: Minimum Inhibitory Concentration. The method, then:
as §1

Experiment [11] deals with Klebsiella pneumoniae (ATCC 13883). Conditions: read-out: Minimum Inhibitory Concentration. The method, then: as §1

Values after ≈ are worked out from the molar mass of the structure shown. Read-outs that look alike come from different tables or passages of the source.

Regarding `CCCCCCCCCCCC[N+](C)(C)C.[Cl-]` [Comp. 11, Dodecyltrimethylammonium chloride], the MIC was 200 µg/mL in experiment [1] (ATCC8739, 24 h); 100 µg/mL in experiment [2] (ATCC12228, 24 h); 1000 µg/mL in [3] (ATCC25416, 24 h); 500 µg/mL in experiment [4] (ATCC9027, 24 h); 500 µg/mL in experiment [5] (ATCC49128, 24 h); 200 µg/mL in experiment [6] (ATCC6538, 24 h). In addition, the MIC in [7] is 1000 µg/mL; in experiment [8] (ATCC10231, 24 h), 200 µg/mL; in experiment [9] (ATCC15442, 24 h) it was 500 µg/mL; in [10] (ATCC33028, 24 h), 500 µg/mL; in [11] (ATCC13883, 24 h) it was 500 µg/mL.
Take `CCCCCCCCCCCC(=O)N[C@@H](CCCNC(=N)N)C(=O)OCC` [Comp. 13, Lauroyl arginine ethyl ester]: the MIC in experiment [1] (ATCC8739, E. coli ATCC 8739, 30° C., 24 hours) came out at 50 µg/mL (≈ 130 µM); in experiment [2] (ATCC12228, S. epidermidis ATCC 12228, 30° C., 24 hours), 12.5 µg/mL (≈ 32.5 µM); in experiment [3] (ATCC25416, B. cepacia ATCC 25416, 30° C., 24 hours), 100 µg/mL (≈ 260 µM); in [4] (ATCC9027, P. aeruginosa ATCC 9027, 30° C., 24 hours), 50 µg/mL (≈ 130 µM); in [5] (ATCC49128, P. putida ATCC 49128, 30° C., 24 hours), 25 µg/mL (≈ 65 µM); in experiment [6] (ATCC6538, S. aureus ATCC 6538, 30° C., 24 hours) it was 12.5 µg/mL (≈ 32.5 µM). In addition, the MIC was found to be 100 µg/mL (≈ 260 µM) in experiment [7] (A. brasiliensis ATCC 16404, 25° C., 7 days); 100 µg/mL (≈ 260 µM) in experiment [8] (ATCC10231, C. albicans ATCC 10231, 25° C., 24 hours); 50 µg/mL (≈ 130 µM) in experiment [9] (ATCC15442, P. aeruginosa ATCC 15442, 30° C., 24 hours); 100 µg/mL (≈ 260 µM) in [10] (ATCC33028, E. gergoviae ATCC 33028, 30° C., 24 hours); 50 µg/mL (≈ 130 µM) in experiment [11] (ATCC13883, K. pneumoniae ATCC 13883, 30° C., 24 hours).

The record behind these values is patent publication US20250002695A1, “COMPOSITIONS COMPRISING CATIONIC ALPHA-1,6-GLUCAN DERIVATIVE AND ALPHA-1,3-GLUCAN” (Nutrition & Biosciences USA 4, Inc., priority 2021, published 2025).
